From patent publication US11091478B2 (Fochon Pharmaceuticals, Ltd., priority 2017, dated 2021) come the findings set out here.

By IC50 is commonly meant the concentration at which inhibition is half-maximal. A lower IC50 goes with greater potency.

Like-named read-outs stand apart in the source and are kept apart here.

One assay relates to RS4;11 cells. Nature of the assay: Cell proliferation assay (MTS), RS4;11 cells, 72 h. Format: cell-based. The procedure, abridged: (§1)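 Cells in RPMI-1640 with 10% FBS were seeded at 5000/well, left overnight at 37° C., 5% CO2, then exposed to compound at 10000 down to 1.5 nM (nine concentrations) for 72 h (RS4;11) or 120 h (DOHH2). Viability was read by MTS, 2 h, absorbance at 490/650 nm; IC50 calculated.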

The next assay has as its system DOHH2 cells. Put plainly: Cell proliferation assay (MTS), DOHH2 cells, 120 h. The assay is classed as cell-based. The procedure, abridged:
as §1

Take `CC1(C)CCC(CN2CCN(c3ccc(C(=O)NS(=O)(=O)c4cc5c(c([N+](=O)[O-])c4)N[C@@H](CO)CO5)c(Oc4cnc5[nH]ccc5c4)c3)CC2)=C(c2ccc(Cl)cc2)C1` [Example 2-220, (S)-2-((1H-pyrrolo[2,3-b]pyridin-5-yl)oxy)-4-(4-((4′-chloro-5,5-dimethyl-3,4,5,6-tetra-hydro-[1,1′-biphenyl]-2-yl)methyl)piperazin-1-yl)-N-((3-(hydroxymethyl)-5-nitro-3,4-dihydro-2H-benzo[b][1,4]oxazin-7-yl)sulfonyl)benzamide]: the IC50 in the assay on RS4;11 cells (Homo sapiens, RS4-11, 72 h) was 8 nM; in the assay with DOHH2 cells (Homo sapiens, DOHH-2, 120 h), 36 nM.

For `CC1(C)CCC(CN2CCN(c3ccc(C(=O)NS(=O)(=O)c4cc5c(c([N+](=O)[O-])c4)N[C@H](CC4CCC(O)CC4)CO5)c(Oc4cnc5[nH]ccc5c4)c3)CC2)=C(c2ccc(Cl)cc2)C1` (single isomer, unassigned) [Example 2-239B], the IC50 with RS4;11 cells and in the assay on DOHH2 cells was 1 nM in each case.

`CC1(C)CCC(CN2CCN(c3ccc(C(=O)NS(=O)(=O)c4cc5c(c([N+](=O)[O-])c4)N[C@@H](Cc4ccccc4)CO5)c(Oc4cnc5[nH]ccc5c4)c3)CC2)=C(c2ccc(Cl)cc2)C1` [Example 2-132, (S)-2-((1H-pyrrolo[2,3-b]pyridin-5-yl)oxy)-N-((3-benzyl-5-nitro-3,4-dihydro-2H-benzo [b][1,4]oxazin-7-yl)sulfonyl)-4-(4-((4′-chloro-5,5-dimethyl-3,4,5,6-tetrahydro-[1,1′-biphenyl]-2-yl)meth-yl)piperazin1-yl)benzamide]: the IC50 in the assay on RS4;11 cells (Homo sapiens, RS4-11, 72 h) came to 2 nM; with DOHH2 cells (Homo sapiens, DOHH-2, 120 h) it was 28 nM.

Take `CN(C)CC[C@H]1COc2cc(S(=O)(=O)NC(=O)c3ccc(N4CCN(CC5=C(c6ccc(Cl)cc6)CC(C)(C)CC5)CC4)cc3Oc3cnc4[nH]ccc4c3)cc([N+](=O)[O-])c2N1` [Example 2-12, (S)-2-((1H-pyrrolo[2,3-b]pyridin-5-yl)oxy)-4-(4-((4′-chloro-5,5-dimethyl-3,4,5,6-tetra-hydro-[1,1′-biphenyl]-2-yl)methyl)piperazin-1-yl)-N-((3-(2-(dimethylamino)ethyl)-5-nitro-3,4-dihydro-2H-benzo[b][1,4]oxazin-7-yl)sulfonyl)benzamide]: the IC50 was 1 nM in the assay with RS4;11 cells (Homo sapiens, RS4-11, 72 h) and 19 nM in the assay with DOHH2 cells (Homo sapiens, DOHH-2, 120 h).

On to `C[C@H]1CN(CC[C@@H]2COc3cc(S(=O)(=O)NC(=O)c4ccc(N5CCN(CC6=C(c7ccc(Cl)cc7)CC(C)(C)CC6)CC5)cc4Oc4cnc5[nH]ccc5c4)cc([N+](=O)[O-])c3N2)CCN1C1COC1` [Example 2-40], for which the IC50 with RS4;11 cells (Homo sapiens, RS4-11, 72 h) was 22 nM; in the assay on DOHH2 cells (Homo sapiens, DOHH-2, 120 h) it was 36 nM.

For `CC1(C)CCC(CN2CCN(c3ccc(C(=O)NS(=O)(=O)c4cc5c(c([N+](=O)[O-])c4)N[C@@H](CN=S4(=O)CCOCC4)CO5)c(Oc4cnc5[nH]ccc5c4)c3)CC2)=C(c2ccc(Cl)cc2)C1` [Example 2-77, (S)-2-((1H-pyrrolo[2,3-b]pyridin-5-yl)oxy)-4-(4-((4′-chloro-5,5-dimethyl-3,4,5,6-tetra-hydro-[1,1′-biphenyl]-2-yl)methyl)piperazin-1-yl)-N-((5-nitro-3-(((4-oxido-1,4λ^6-oxa-thian-4-ylidene)amino)methyl)-3,4-dihydro-2H-benzo[b][1,4]oxazin-7-yl)sulfonyl)ben-zamide], the 50% inhibitory concentration (IC50) in the assay on RS4;11 cells (Homo sapiens, RS4-11, 72 h) amounted to 50 nM; in the assay with DOHH2 cells (Homo sapiens, DOHH-2, 120 h), 602 nM.

Consider `CC1(C)CCC(CN2CCN(c3ccc(C(=O)NS(=O)(=O)c4cc5c(c([N+](=O)[O-])c4)N[C@@H](COC4CCOCC4)CO5)c(Oc4cnc5[nH]ccc5c4)c3)CC2)=C(c2ccc(Cl)cc2)C1` [Example 2-183, (S)-2-((1H-pyrrolo[2,3-b]pyridin-5-yl)oxy)-4-(4-((4′-chloro-5,5-dimethyl-3,4,5,6-tetra-hydro-[1,1′-biphenyl]-2-yl)methyl)piperazin-1-yl)-N-((5-nitro-3-(((tetrahydro-2H-pyran-4-yl)oxy)methyl)-3,4-dihydro-2H-benzo [b][1,4]oxazin-7-yl)sulfonyl)benzamide], for which the IC50 in the assay with RS4;11 cells (Homo sapiens, RS4-11, 72 h) amounted to 4 nM; in the assay on DOHH2 cells (Homo sapiens, DOHH-2, 120 h), 20 nM.

With `CN1CCN(C[C@H]2COc3cc(S(=O)(=O)NC(=O)c4ccc(N5CCN(CC6=C(c7ccc(Cl)cc7)CC(C)(C)CC6)CC5)cc4Oc4cnc5[nH]ccc5c4)cc([N+](=O)[O-])c3O2)CC1` [Example 5-2], the half-maximal inhibitory concentration (IC50) with RS4;11 cells (Homo sapiens, RS4-11, 72 h) turned out to be 1 nM; with DOHH2 cells (Homo sapiens, DOHH-2, 120 h) it was 25 nM.

Regarding `CN1CCC(C[C@H]2COc3cc(S(=O)(=O)NC(=O)c4ccc(N5CCN(CC6=C(c7ccc(Cl)cc7)CC(C)(C)CC6)CC5)cc4Oc4cnc5[nH]ccc5c4)cc([N+](=O)[O-])c3N2)CC1` [Example 2-193, (S)-2-((1H-pyrrolo[2,3-b]pyridin-5-yl)oxy)-4-(4-((4′-chloro-5,5-dimethyl-3,4,5,6-tetra-hydro-[1,1′-biphenyl]-2-yl)methyl)piperazin-1-yl)-N-((3-((1-methylpiperidin-4-yl)meth-yl)-5-nitro-3,4-dihydro-2H-benzo[b][1,4]oxazin-7-yl)sulfonyl)benzamide], the IC50 in the assay with RS4;11 cells (Homo sapiens, RS4-11, 72 h) amounted to 1 nM; in the assay on DOHH2 cells (Homo sapiens, DOHH-2, 120 h), 28 nM.

For `CC1(C)CCC(CN2CCN(c3ccc(C(=O)NS(=O)(=O)c4cc5c(c([N+](=O)[O-])c4)N[C@H](CCN4CC(C)(O)C4)CO5)c(Oc4cnc5[nH]ccc5c4)c3)CC2)=C(c2ccc(Cl)cc2)C1` [Example 2-35, (R)-2-((1H-pyrrolo[2,3-b]pyridin-5-yl)oxy)-4-(4-((4′-chloro-5,5-dimethyl-3,4,5,6-tetra-hydro-[1,1′-biphenyl]-2-yl)methyl)piperazin-1-yl)-N-((3-(2-(3-hydroxy-3-methylazetidin-1-yl)ethyl)-5-nitro-3,4-dihydro-2H-ben-zo[b][1,4]oxazin-7-yl)sulfonyl)benzamide], the half-inhibitory concentration (IC50) stood at 5 nM in the assay with RS4;11 cells (Homo sapiens, RS4-11, 72 h) and 30 nM in the assay on DOHH2 cells (Homo sapiens, DOHH-2, 120 h).

Take `CC1(C)CCC(CN2CCN(c3ccc(C(=O)NS(=O)(=O)c4cc5c(c([N+](=O)[O-])c4)N[C@@H](CN4CCN(S(C)(=O)=O)CC4)CO5)c(Oc4cnc5[nH]ccc5c4)c3)CC2)=C(c2ccc(Cl)cc2)C1` [Example 2-95, (S)-2-((1H-pyrrolo[2,3-b]pyridin-5-yl)oxy)-4-(4-((4′-chloro-5,5-dimethyl-3,4,5,6-tetra-hydro-[1,1′-biphenyl]-2-yl)methyl)piperazin-1-yl)-N-((3-((4-(methylsulfonyl)piperazin-1-yl)methyl)-5-nitro-3,4-dihydro-2H-ben-zo[b][1,4]oxazin-7-yl)sulfonyl)benzamide]: the IC50 is 45 nM in the assay on RS4;11 cells (Homo sapiens, RS4-11, 72 h) and 19 nM in the assay on DOHH2 cells (Homo sapiens, DOHH-2, 120 h).

With `CC1(C)CCC(CN2CCN(c3ccc(C(=O)NS(=O)(=O)c4cc5c(c([N+](=O)[O-])c4)N[C@H](CCN4CCS(=O)(=NC6CC6)CC4)CO5)c(Oc4cnc5[nH]ccc5c4)c3)CC2)=C(c2ccc(Cl)cc2)C1` [Example 2-129, (R)-2-((1H-pyrrolo[2,3-b]pyridin-5-yl)oxy)-4-(4-((4′-chloro-5,5-dimethyl-3,4,5,6-tetra-hydro-[1,1′-biphenyl]-2-yl)methyl)piperazin-1-yl)-N-((3-(2-(1-(cylcopropylimino)-1-oxido-1λ^6-thiomorphlino)ethyl)-5-nitro-3,4-dihydro-2H-benzo[b][1,4]oxazin-7-yl)sulfanoyl)benzamide], the IC50 with RS4;11 cells (Homo sapiens, RS4-11, 72 h) is 9 nM; in the assay with DOHH2 cells (Homo sapiens, DOHH-2, 120 h), 16 nM.

With `CN(C)C[C@H]1COc2cc(S(=O)(=O)NC(=O)c3ccc(N4CCN(CC5=C(c6ccc(Cl)cc6)CC(C)(C)CC5)CC4)cc3Oc3cnc4[nH]ccc4c3)cc([N+](=O)[O-])c2N1` [Example 2-20, (S)-2-((1H-pyrrolo[2,3-b]pyridin-5-yl)oxy)-4-(4-((4′-chloro-5,5-dimethyl-3,4,5,6-tetra-hydro-[1,1′-biphenyl]-2-yl)methyl)piperazin-1-yl)-N-((3-((dimethylamino)methyl)-5-nitro-3,4-dihydro-2H-benzo[b][1,4]oxazin-7-yl)sulfonyl)benzamide], the half-maximal inhibitory concentration (IC50) in the assay with RS4;11 cells (Homo sapiens, RS4-11, 72 h) was found to be 29 nM; in the assay on DOHH2 cells (Homo sapiens, DOHH-2, 120 h), 59 nM.

On to `CN(C)CC[C@@H]1CSc2cc(S(=O)(=O)NC(=O)c3ccc(N4CCN(CC5=C(c6ccc(Cl)cc6)CC(C)(C)CC5)CC4)cc3Oc3cnc4[nH]ccc4c3)cc([N+](=O)[O-])c2N1` [Example 3-13, (R)-2-((1H-pyrrolo[2,3-b]pyridin-5-yl)oxy)-4-(4-((4′-chloro-5,5-dimethyl-3,4,5,6-tetra-hydro-[1,1′-biphenyl]-2-yl)methyl)piperazin-1-yl)-N-((3-(2-(dimethylamino)ethyl)-5-nitro-3,4-dihydro-2H-benzo[b][1,4]thiazin-7-yl)sulfonyl)benzamide], for which the IC50 came to 2 nM with RS4;11 cells (Homo sapiens, RS4-11, 72 h) and 2 nM with DOHH2 cells (Homo sapiens, DOHH-2, 120 h).

Consider `CCN=S1(=O)CCN(CC[C@@H]2COc3cc(S(=O)(=O)NC(=O)c4ccc(N5CCN(CC6=C(c7ccc(Cl)cc7)CC(C)(C)CC6)CC5)cc4Oc4cnc5[nH]ccc5c4)cc([N+](=O)[O-])c3N2)CC1` [Example 2-128, (R)-2-((1H-pyrrolo[2,3-b]pyridin-5-yl)oxy)-4-(4-((4′-chloro-5,5-dimethyl-3,4,5,6-tetra-hydro-[1,1′-biphenyl]-2-yl)methyl)piperazin-1-yl)-N-((3-(2-(1-(ethylimino)-1-oxido-1λ^6-thiomorpholino)ethyl)-5-nitro-3,4-di-hydro-2H-benzo[b][1,4]oxazin-7-yl)sulfonyl) benzamide], for which the IC50 worked out at 20 nM in the assay on RS4;11 cells (Homo sapiens, RS4-11, 72 h) and 28 nM with DOHH2 cells (Homo sapiens, DOHH-2, 120 h).

Take `CO[C@H]1CC[C@H](OC[C@@H]2COc3cc(S(=O)(=O)NC(=O)c4ccc(N5CCN(CC6=C(c7ccc(Cl)cc7)CC(C)(C)CC6)CC5)cc4Oc4cnc5[nH]ccc5c4)cc([N+](=O)[O-])c3N2)CC1` [Example 2-251, 2-((1H-pyrrolo[2,3-b]pyridin-5-yl)oxy)-4-(4-((4′-chloro-5,5-dimethyl-3,4,5,6-tetrahydro-[1,1′-biphenyl]-2-yl)methyl)piperazin-1-yl)-N-(((R)-3-((((1r,4R)-4-methoxycyclohex-yl)oxy)methyl)-5-nitro-3,4-dihydro-2H-benzo[b][1,4]oxazin-7-yl)sulfonyl)benzamide]: the IC50 came out at 1 nM with RS4;11 cells (Homo sapiens, RS4-11, 72 h) and 44 nM in the assay with DOHH2 cells (Homo sapiens, DOHH-2, 120 h).
